Laboratory results from ChEMBL document CHEMBL4483862, “Open-source discovery of chemical leads for next-generation chemoprotective antimalarials” (2018).

Tested on: Plasmodium berghei
Assay: Luciferase/luciferin-expressing antifolate-resistant parasites were used to infect a culture of HepG2 cells that were pre-incubated with compounds. Infected hepatocytes emit light due to the luciferase reaction. Assay results are presented as the percent inhibition of light emission compared to control. […]
Assay type: functional
Conditions: sporozoite; for IC90: read-out: LUCIFERASE INFECTION ASSAY - IC90

Compound | IC90 [µM] | further results
CC1C(c2ccccc2)N(C)C(c2ccccc2)CC1(O)c1ccc(F)cc1 (stereo not given) | > 8.01 | IC50 (PBLUC_HILL_SLOPE 3.61, PBLUC_R_SQUARED 0.228, read-out: LUCIFERASE INFECTION ASSAY - IC50): 7.47 µM
COc1cccc(-c2cc3c(Nc4cccnc4)nccc3[nH]2)c1 | > 10 | IC50 (PBLUC_HILL_SLOPE 3.56, PBLUC_R_SQUARED 0.0884, read-out: LUCIFERASE INFECTION ASSAY - IC50): 9.12 µM
CN(C)c1cccc(-c2cnc3cnc(-c4ccc(CO)cc4)cn23)c1 | > 9.58 | IC50 (PBLUC_HILL_SLOPE 3.53, PBLUC_R_SQUARED 0.408, read-out: LUCIFERASE INFECTION ASSAY - IC50): 6.91 µM
COc1cccc(-c2cc3c(Nc4cccc(N(C)C)c4)nccc3n2C)c1 | 8.25 | IC50 (PBLUC_HILL_SLOPE 3.57, PBLUC_R_SQUARED 0.3, read-out: LUCIFERASE INFECTION ASSAY - IC50): 4.46 µM
CC(NC(=O)c1ccccc1NC(=O)CN1CCN(C/C=C/c2ccccc2)CC1)c1ccccc1 (stereo not given) | 8.52 | IC50 (PBLUC_HILL_SLOPE 3.6, PBLUC_R_SQUARED 0.261, read-out: LUCIFERASE INFECTION ASSAY - IC50): 4.62 µM
CNC(=O)c1ccc(CN(C2CC2)S(=O)(=O)c2ccc(Br)s2)cc1 | > 10 | IC50 (PBLUC_HILL_SLOPE 3.54, PBLUC_R_SQUARED 0.19, read-out: LUCIFERASE INFECTION ASSAY - IC50): 5.83 µM
CSc1c(-c2ccc(Cl)cc2)[nH]c2ccccc12 | > 12.1 | IC50 (PBLUC_HILL_SLOPE 3.51, PBLUC_R_SQUARED 0.189, read-out: LUCIFERASE INFECTION ASSAY - IC50): 11.1 µM
O=C(c1ccco1)N1CCN(c2nc(-c3ccsc3)nc3ccccc23)CC1 | > 10 | IC50 (PBLUC_HILL_SLOPE 3.55, PBLUC_R_SQUARED 0.0384, read-out: LUCIFERASE INFECTION ASSAY - IC50): 7.3 µM
CN(C)CCCOc1ccc(-c2nnc3ccc(-c4cccc(OC(F)(F)F)c4)cn23)cc1 | > 10 | IC50 (PBLUC_HILL_SLOPE 3.54, PBLUC_R_SQUARED 0.437, read-out: LUCIFERASE INFECTION ASSAY - IC50): 7.74 µM
N#CCCN(Cc1ccco1)C(=O)Cn1ncc(Cl)c(Cl)c1=O | > 10 | IC50 (PBLUC_HILL_SLOPE 3.57, PBLUC_R_SQUARED 0.442, read-out: LUCIFERASE INFECTION ASSAY - IC50): 8.27 µM
Cc1cccc(C(=O)Nc2nc3ccc(C)cn3c2C(=O)NC2CCCC2)c1 | 7.46 | IC50 (PBLUC_HILL_SLOPE 3.54, PBLUC_R_SQUARED 0.461, read-out: LUCIFERASE INFECTION ASSAY - IC50): 4.01 µM
COc1ccc(Cn2c(C3CC(=O)N(C)C3)nc3ccccc32)cc1 (stereo not given) | > 9.84 | IC50 (PBLUC_HILL_SLOPE 3.53, PBLUC_R_SQUARED 0.0667, read-out: LUCIFERASE INFECTION ASSAY - IC50): 8.05 µM
COc1cccc(NC(=O)c2cccc(C3(CNc4cccc(OC(F)(F)F)c4)CC3)c2)c1 | > 10 | IC50 (PBLUC_HILL_SLOPE 3.47, PBLUC_R_SQUARED 0.3, read-out: LUCIFERASE INFECTION ASSAY - IC50): 9.2 µM
Oc1cccc(-c2cnc3ccc(-c4cccc(C(F)(F)F)c4)nn23)c1 | > 10 | IC50 (PBLUC_HILL_SLOPE 3.46, PBLUC_R_SQUARED 0.251, read-out: LUCIFERASE INFECTION ASSAY - IC50): 6.43 µM
O=c1cc(Nc2ccc(F)cc2)c2ccccc2o1 | 12.8 | IC50 (PBLUC_HILL_SLOPE 3.61, PBLUC_R_SQUARED 0.0806, read-out: LUCIFERASE INFECTION ASSAY - IC50): 6.97 µM
Cc1cc(C)c(NC(=O)C(=O)NC(C)C)c(C)c1 | 11 | IC50 (PBLUC_HILL_SLOPE 3.55, PBLUC_R_SQUARED 0.214, read-out: LUCIFERASE INFECTION ASSAY - IC50): 5.93 µM
CC(C)(C)c1ccc(C2=NNC(=NCCCN3CCOCC3)SC2)cc1 | 9.2 | IC50 (PBLUC_HILL_SLOPE 3.6, PBLUC_R_SQUARED 0.412, read-out: LUCIFERASE INFECTION ASSAY - IC50): 5 µM
CN(CC(=O)Nc1ccc(-c2nc3ccccc3[nH]2)cc1)S(=O)(=O)c1cccs1 | > 10 | IC50 (PBLUC_HILL_SLOPE 3.6, PBLUC_R_SQUARED 0.614, read-out: LUCIFERASE INFECTION ASSAY - IC50): 8.33 µM
CC(=O)c1ccccc1NC(=O)CNc1ccccc1N(C)Cc1ccccc1 | > 10 | IC50 (PBLUC_HILL_SLOPE 3.51, PBLUC_R_SQUARED 0.275, read-out: LUCIFERASE INFECTION ASSAY - IC50): 8.09 µM
CC1CCC(C(C)C)C(OCC(=O)NCc2ccc(NC(=O)c3ccco3)cc2)C1 (stereo not given) | > 10 | IC50 (PBLUC_HILL_SLOPE 3.59, PBLUC_R_SQUARED 0.694, read-out: LUCIFERASE INFECTION ASSAY - IC50): 6.09 µM

Compound | IC90 [µM] | further results
C=CCn1c(N)c(-c2nc3ccccc3[nH]2)c2nc3ccccc3nc21 | > 9.69 | IC50 (PBLUC_HILL_SLOPE 3.6, PBLUC_R_SQUARED 0.636, read-out: LUCIFERASE INFECTION ASSAY - IC50): 5.99 µM
Cc1cc(C)cc(-n2nc(C)c3c2NC(=O)CC3c2ccc3c(c2)OCO3)c1 (stereo not given) | > 8.79 | IC50 (PBLUC_HILL_SLOPE 3.57, PBLUC_R_SQUARED 0.259, read-out: LUCIFERASE INFECTION ASSAY - IC50): 7.56 µM
COc1ccc(C(NCC(=O)Nc2sccc2C(N)=O)c2ccccc2)cc1 (stereo not given) | > 10 | IC50 (PBLUC_HILL_SLOPE 3.52, PBLUC_R_SQUARED 0.517, read-out: LUCIFERASE INFECTION ASSAY - IC50): 5.37 µM
OCc1ccc(-c2cnc3cnc(-c4ccsc4)cn23)cc1 | 8.46 | IC50 (PBLUC_HILL_SLOPE 3.6, PBLUC_R_SQUARED 0.458, read-out: LUCIFERASE INFECTION ASSAY - IC50): 4.59 µM
COc1ccccc1-c1nc2ccc(NC(=O)Nc3ccc(OC(F)(F)F)cc3)cn2n1 | > 10 | IC50 (PBLUC_HILL_SLOPE 3.5, PBLUC_R_SQUARED 0.389, read-out: LUCIFERASE INFECTION ASSAY - IC50): 7.37 µM
O=C1C(=C2NN=NN2c2ccc(-c3ccccc3)cc2)C=Nc2ccccc21 | > 9.03 | IC50 (PBLUC_HILL_SLOPE 3.52, PBLUC_R_SQUARED 0.301, read-out: LUCIFERASE INFECTION ASSAY - IC50): 6.48 µM
COc1ccccc1CNc1ncnc2scc(-c3ccccc3)c12 | > 10 | IC50 (PBLUC_HILL_SLOPE 3.56, PBLUC_R_SQUARED 0.13, read-out: LUCIFERASE INFECTION ASSAY - IC50): 5.66 µM
CC(C)c1ccc(CN(C(=O)Cc2c[nH]c3ccccc23)C2CC2)cc1 | > 10 | IC50 (PBLUC_HILL_SLOPE 3.49, PBLUC_R_SQUARED 0.314, read-out: LUCIFERASE INFECTION ASSAY - IC50): > 10 µM
CCOc1ccc(C(C)=O)cc1CSc1nc2ccccc2n1-c1cccc(C)c1 | > 10 | IC50 (PBLUC_HILL_SLOPE 3.51, PBLUC_R_SQUARED 0.141, read-out: LUCIFERASE INFECTION ASSAY - IC50): 7.59 µM
CC(=O)Nc1ccc(Nc2cc3c(cn2)cc(-c2cccnc2)n3Cc2ccccc2)cc1 | 7.61 | IC50 (PBLUC_HILL_SLOPE 3.49, PBLUC_R_SQUARED 0.716, read-out: LUCIFERASE INFECTION ASSAY - IC50): 4.06 µM
COc1cccc(Oc2ccc(C(F)(F)F)cc2NC(=O)c2ccc(NC(=O)C3CC3)s2)c1 | > 10 | IC50 (PBLUC_HILL_SLOPE 3.5, PBLUC_R_SQUARED 0.215, read-out: LUCIFERASE INFECTION ASSAY - IC50): 6.65 µM
Cc1ccc(CNC(=O)c2ccc(CN3CCc4ccccc4C3)cc2)cc1 | > 8.91 | IC50 (PBLUC_HILL_SLOPE 3.55, PBLUC_R_SQUARED 0.838, read-out: LUCIFERASE INFECTION ASSAY - IC50): 6.04 µM
COc1ccc(Cn2c(C)nc3oc4ccccc4c(=O)c3c2=O)cc1 | > 9.47 | IC50 (PBLUC_HILL_SLOPE 3.46, PBLUC_R_SQUARED 0.26, read-out: LUCIFERASE INFECTION ASSAY - IC50): 6.48 µM
CN(C)CCNC(=O)c1ccc(-c2cn3c(-c4cccc(OC(F)(F)F)c4)cnc3cn2)cc1 | > 7.03 | IC50 (PBLUC_HILL_SLOPE 3.61, PBLUC_R_SQUARED 0.27, read-out: LUCIFERASE INFECTION ASSAY - IC50): 5.86 µM
COc1ccc(-c2cc(C(=O)N[C@@H](CCSC)c3nc4ccccc4[nH]3)c3ccccc3n2)cc1OC | 8.04 | IC50 (PBLUC_HILL_SLOPE 3.46, PBLUC_R_SQUARED 0.459, read-out: LUCIFERASE INFECTION ASSAY - IC50): 4.26 µM
Cc1nc2c3c(C)c(C)n(Cc4ccccc4)c3ncn2n1 | > 11.3 | IC50 (PBLUC_HILL_SLOPE 3.56, PBLUC_R_SQUARED 0.538, read-out: LUCIFERASE INFECTION ASSAY - IC50): 9.25 µM
COc1ccc(C(CNC(=O)c2cc3cc(Br)ccc3[nH]2)N2CCCC2)cc1 (stereo not given) | > 10 | IC50 (PBLUC_HILL_SLOPE 3.58, PBLUC_R_SQUARED 0.137, read-out: LUCIFERASE INFECTION ASSAY - IC50): > 10 µM
O=C(NC1CC1)c1ccc(-c2cnn3c(NCc4ccc(F)cc4)ccnc23)cc1 | > 8.22 | IC50 (PBLUC_HILL_SLOPE 3.6, PBLUC_R_SQUARED 0.311, read-out: LUCIFERASE INFECTION ASSAY - IC50): 4.82 µM
Fc1ccc(-c2cnc3cnc(-c4ccccc4Cl)cn23)cc1Cl | > 9.21 | IC50 (PBLUC_HILL_SLOPE 3.59, PBLUC_R_SQUARED 0.419, read-out: LUCIFERASE INFECTION ASSAY - IC50): 8.08 µM
Cc1cc(C)cc(NC(=S)NCCCCN2CCN(c3cccc(Cl)c3)CC2)c1 | > 7.66 | IC50 (PBLUC_HILL_SLOPE 3.55, PBLUC_R_SQUARED 0.0766, read-out: LUCIFERASE INFECTION ASSAY - IC50): 7.54 µM
